Measured values reported in patent publication US20250090555A1, “METHOD FOR PRODUCING A CBD […] OR SOLID AND USE THEREOF” (Food4Innovations Ventures B.V., priority 2022, published 2025).

Key:
Format in all cases: physicochemical
[1] = Observation of foam formation of the emulsion / diluted beverage
[2] = Turbidity of the emulsion before and after dilution with water, by turbidity meter; details: dilution factor not printed at the place
Experimental: A stable, optically clear, beverage is desirably obtained. Homogenization is carried out with a pressure of between 300 bar and 1500 bar, preferably about 800 bar. The homogenization pressure may be applied for between 1 and 5 passes. The ratio of emulsifier to carrier oil in the emulsion may be containing an excess amount of emulsifier in oil, which could be used to make an optically clear beverage. An optimal concentration of between 0 and 3 times more emulsifier in contrast to the oil phase will be tested. Cloudy beverages have a high turbidity, e.g., between 200 and 300 NTU, or even as high as 2,000 NTU. The aim is to develop a beverage with a turbidity<15 NTU. After production of the treatments, the turbidity will therefore be measured by a turbidity meter.
• 1. Before starting the experiment, the most optimal solubilizing phase of the emulsifier (organic or in aqueous phase) may be investigated. This could influence the droplet size and is different for every emulsifier (the movement of the emulsifier from the oil phase into the aqueous phase may be important in the formation of nano emulsions by this method). • 2. Prepare a pre-emulsion comprising the emulsifier in water or oil phase in order to fully dissolve the emulsifier. […] The concentrated emulsion may especially be made into a ready-to-drink clear beverage by diluting it with water. […]

[3] = Observation of physical stability: viscosity, phase separation, storage / shelf life; details: before or after homogenization or on storage
Source text: • 1. Before starting the experiment, the most optimal solubilizing phase of the emulsifier (organic or in aqueous phase) may be investigated. This could influence the droplet size and is different for every emulsifier (the movement of the emulsifier from the oil phase into the aqueous phase may be important in the formation of nano emulsions by this method). • 2. Prepare a pre-emulsion comprising the emulsifier in water or oil phase in order to fully dissolve the emulsifier. When mixing the emulsifier into the solubilizing phase, an Ultra turrax is used at 10000 rpm (stand 37) for 3 minutes. If needed, the emulsifier and solubilized phase could be heated prior to mixing. • 3. Mix the pre-emulsion by slowly adding the oil phase to the aqueous phase while mixing with an Ultra turrax at 12000 rpm (stand 40) for 5 min). • 4. Let the pre-emulsion mixture rest for 1 hour. • 5. Homogenize the emulsion with a homogenizer preferably between 300-1200 bar, and between 3 and 5 passes. • 6. Collect the sample and measure the temperature directly. • 7. Allow it to cool completely before measuring the turbidity. • 8. The concentrated emulsion may especially be made into a ready-to-drink clear beverage by diluting it with water. Therefore, dilute a small amount of the obtained concentrated emulsion from step 6 with water to observe the clarity and turbidity of the final product. […]

Sucrose monostearate
Foam formation [1]: no foam formation | Turbidity [2]: > 15 NTU | Viscosity / phase separation / storage behaviour [3]: became extremely viscous after a couple days of storage
